Experimental data as given in patent publication US20260027096A1, “PHD INHIBITORS” (Oxford University Innovation Limited, priority 2023, published 2026).

What was measured:
[1] = system: murine AML cells harbouring FLT3-ITD mutations (with and without NPM1 mutations), PML-RARα and AML1-ETO; experiment: Proliferation and apoptosis of murine AML cells with other drivers; format: cell-based, mouse
Text: Viable cells were counted by trypan blue exclusion at the indicated time points. To analyse cells undergoing apoptosis, cells were suspended in binding buffer containing PE-conjugated Annexin-V or FITC-conjugated Annexin-V, and either PI or DAPI.
To validate the anti-leukaemic effect of PHD inhibition on AML cells transformed by drivers independent from the MLL/Meis1/Hoxa9 axis, murine AML cells harbouring FLT3-ITD mutations were employed (with and without NPM1 mutations), PML-RARα and AML1-ETO.

[2] = system: THP-1 cells in NBSGW recipient mice; experiment: THP-1 xenotransplantation in NBSGW mice; format: in vivo; details: 30 mg/kg i.p. twice daily for 21 days
Text: (§1) (A) 100,000 THP-1 cells were transplanted into NBSGW recipient mice. […] (B-C) Percentage of human CD45+CD33+ and human CD45+CD14+ cells in the BM and spleen, respectively (n=4-5). (D) 100,000 OCI-AML3 cells were transplanted into NBSGW recipient mice. […] (E) Percentage of human CD45+CD33+CD14+ cells in the liver, BM and PB, respectively (n=3-7). (F) 2,000 LSK cells from iMLL-AF9;Control mice were sorted and transplanted into irradiated recipient mice. […] (H) LDA in secondary recipients transplanted with indicated doses of CD45.2+BM cells from primary recipients (n=9-10 per dose). (I) Plot showing Poisson statistical analysis. Circles represent the percentages of negative mice for each cell dose, triangles represent any data values with zero negative responses. Solid lines indicate the best-fit linear model, and dotted lines represent 95% CIs. LSC frequencies were calculated using the ELDA software 121. (J) Steady-state analyses of 8-to 10-week-old C57B16 mice treated with IOX5 or vehicle control 2× daily via i.p. injection for 14 days (n=5-7). (K) PB counts (n=6). (L) Total BM cellularity (n=5-9). (M) Total numbers of HSC, MPP, HPC-1 and HPC-2 populations (n=5-7). Data represent mean±SEM; * p<0.05; ** p<0.01; *** p<0.001; **** p<0.0001.
(§2) 100,000 THP-1 cells, 100,000 OCI-AM3 cells or 100,000 MV411 cells (for combination experiments) were tail vein injected into non-irradiated 10-to 12-week-old mixed gender NBSGW mice and began drug treatment 14 days after transplantation. […] Mice were culled 5 weeks after transplantation.
Next, it was examined whether IOX (68, example 46)5 has a therapeutic impact on MLL-AF9-independent AML. […] Therefore, IOX5 (68, example 46) compromises both MLL-rearranged and non-MLL AML in vivo.

[3] = system: murine iMLL-AF9 LSK cells in DOX-treated recipient mice; experiment: iMLL-AF9 LSK cell transplantation AML model; format: in vivo, mouse; details: vs vehicle
Text: (A) 100,000 THP-1 cells were transplanted into NBSGW recipient mice. […] (B-C) Percentage of human CD45+CD33+ and human CD45+CD14+ cells in the BM and spleen, respectively (n=4-5). (D) 100,000 OCI-AML3 cells were transplanted into NBSGW recipient mice. […] (E) Percentage of human CD45+CD33+CD14+ cells in the liver, BM and PB, respectively (n=3-7). (F) 2,000 LSK cells from iMLL-AF9;Control mice were sorted and transplanted into irradiated recipient mice. […] (H) LDA in secondary recipients transplanted with indicated doses of CD45.2+BM cells from primary recipients (n=9-10 per dose). (I) Plot showing Poisson statistical analysis. […] LSC frequencies were calculated using the ELDA software 121. […]
For primary transplantations of leukemic cells, 100,000 Meis1/Hoxa9-transduced c-Kit^+ cells or 2,000 iMLL-AF9 Lin Sca-1^+c-Kit^+ (LSK) cells were transplanted into lethally irradiated CD45.1^+/CD45.2^+ recipient mice (together with 200,000 unfractionated support CD45.1^+ wild-type BM cells). All recipient were culled upon reaching their humane endpoint as recorded in survival curves.
For secondary transplantations of leukaemic cells, 50,000 cells harvested from primary recipients were transplanted into lethally irradiated CD45.1+/CD45.2+recipient mice (together with 200,000 unfractionated support CD45.1+wild-type BM cells). […] LSC frequency was calculated using ELDA software^121. […]

[4] = system: MV411 AML cells in NBSGW recipient mice; experiment: MV411 xenotransplantation in NBSGW mice, combination with Venetoclax; format: in vivo, mouse; details: 14 days treatment; IOX5 i.p. twice daily, Venetoclax o.g. once daily
Procedure: 14 days following transplantation, recipient mice were treated with IOX5 (68, example 46), Venetoclax or vehicle control. Dosing regimen consisted of 2× daily via i.p. injection (IOX5 (68, example 46) or vehicle) and/or 1× daily via o.g. (Venetoclax or vehicle). […] (E-G) Percentage of human CD45+CD33+CD14+ cells in the BM, spleen and liver, respectively (n=5). (H) Survival curve of mice treated with IOX5 (68, example 46), Venetoclax, IOX5 (68, example 46)+Venetoclax or vehicle control (n=6-7). (I-J) Proliferation and Annexin-V+DAPI+analyses, respectively, of THP-1 cells treated with Ven, IOX5, FIH inhibitor (FIHi; DM-NOFD), IOX5 (68, example 46)+FIHi, IOX5 (68, example 46)+Ven, FIHi+Ven, IOX5 (68, example 46)+FIHi+Ven or vehicle control (n=6). Statistical significance represented as in (A-B). Data represent mean±SEM; *p<0.05; ** p<0.01; *** p<0.001; **** p<0.0001.
as §2
Mice in combination treatment experiments with Venetoclax (ABT-199) (MCE) were dosed once daily with 100 mg/kg via oral gavage (o.g.).
Further to findings in Example 170, the efficacy of IOX5 (68, example 46)+Venetoclax combination in vivo was investigated (FIG. 38D). MV411 AML cells were engrafted (with MLL-AF4 and FLT3-ITD mutation) and the recipient mice were treated with a vehicle, IOX5 (68, example 46), Venetoclax, and a combination of IOX5 (68, example 46)+Venetoclax.

[5] = system: HIF-2α in MOLM13, OCI-AML3, MV411 and THP-1 cells; experiment: Western blot of HIF-2α in human AML cell lines; format: cell-based; details: 48 hrs
Procedure: Equipped with currently available PHD inhibitors and newly generated IOX5 (68, example 46), the impact of pharmacological PHD inhibition on AML cells was assessed. […] Thus, while PHD inhibition consistently stabilises HIF-1α protein across all tested AML cell lines, HIF-2α stabilisation is variable and cell line-specific.

[6] = system: OCI-AML3 cells in NBSGW recipient mice; experiment: OCI-AML3 xenotransplantation in NBSGW mice; format: in vivo, mouse; details: i.p. twice daily for 21 days
Text: as §1, with “p<0.0001. […]” for “p<0.0001.”

Row | Compound | apoptosis (Annexin-V+DAPI+) [1] | proliferation [1] | leukaemic burden [2] | tolerability of treatment [2] | survival of leukaemic mice ([3]; i.p. twice daily for 14 days) | LSC frequency (limiting dilution assay) ([3]; secondary recipients) | leukaemic burden [4] | survival of recipient mice [4] | HIF-2α protein level (western blot) ([5]; MOLM13 and MV411 cells) | HIF-2α protein level (western blot) ([5]; OCI-AML3 and THP-1 cells) | leukaemic burden [6]
1 | O=C(O)CNC(=O)c1c(O)n(C2CCCCC2)c(=O)n(C2CCCCC2)c1=O [Daprodustat, daprodustat, reference compound] | induced apoptosis | reduced the proliferative rate | significantly reduced leukaemic burden | well tolerated | – | – | – | – | – | – | –
2 | O=C(NCC1CCC(C(F)(F)F)CC1)c1c[nH]c(-n2cccn2)cc1=O (centres unmarked) [IOX5] | induced apoptosis | reduced the proliferative rate | significantly reduced leukaemic burden | – | significantly increased survival of leukaemic mice | significantly decreased LSC frequency | decreased leukaemic burden | extended survival of the recipient mice | did not induce any HIF-2α stabilisation | stabilised HIF-2α protein levels | significantly reduced leukaemic burden
